Assay results: the supplement of paper PMC10307832

Key:
Test in all cases: relative viability (nuclei count vs DMSO), 5 days (fraction); higher = more cells survive
KIN001-266 + Lapatinib = compound: CCN1CCC(CC1)N2C=C(N=N2)CNC3=CC4=C(C(=CN=C4C(=C3)Cl)C#N)NC5=CC(=C(C=C5)F)Cl [KIN001-266] + CS(=O)(=O)CCNCc1ccc(-c2ccc3ncnc(Nc4ccc(OCc5cccc(F)c5)c(Cl)c4)c3c2)o1 [Lapatinib] (partner 2 µM)
In short: (§1)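 Each reported value is a median over duplicate plates. It expresses relative viability: treated-well nuclei count divided by vehicle-well nuclei count. Lung cancer cell lines in 1536-well plates were dosed by pin tool a day after seeding, alone with one drug or with a fixed anchor-drug dose plus five library-drug doses (not always all listed) in √10 steps, and nuclei were counted after 5 days.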

KIN001-266 + OSI-027 = compound: CCN1CCC(CC1)N2C=C(N=N2)CNC3=CC4=C(C(=CN=C4C(=C3)Cl)C#N)NC5=CC(=C(C=C5)F)Cl [KIN001-266] + COc1cccc2cc(-c3nc([C@H]4CC[C@H](C(=O)O)CC4)n4ncnc(N)c34)[nH]c12 [OSI-027] (partner 0.5 µM)
In short: as §1

KIN001-266 + Alpelisib = compound: CCN1CCC(CC1)N2C=C(N=N2)CNC3=CC4=C(C(=CN=C4C(=C3)Cl)C#N)NC5=CC(=C(C=C5)F)Cl [KIN001-266] + Cc1nc(NC(=O)N2CCC[C@H]2C(N)=O)sc1-c1ccnc(C(C)(C)C(F)(F)F)c1 [Alpelisib] (partner 2 µM)
In short: as §1

KIN001-266 + Linsitinib = compound: CCN1CCC(CC1)N2C=C(N=N2)CNC3=CC4=C(C(=CN=C4C(=C3)Cl)C#N)NC5=CC(=C(C=C5)F)Cl [KIN001-266] + C[C@]1(O)C[C@@H](c2nc(-c3ccc4ccc(-c5ccccc5)nc4c3)c3c(N)nccn32)C1 [Linsitinib] (partner 1 µM)
In short: as §1

Cell Line	relative viability (KIN001-266 + Lapatinib; first compound 0.08 µM)	relative viability (KIN001-266 + Lapatinib; first compound 0.253 µM)	relative viability (KIN001-266 + Lapatinib; first compound 0.8 µM)	relative viability (KIN001-266 + Lapatinib; first compound 2.53 µM)	relative viability (KIN001-266 + Lapatinib; first compound 8 µM)	relative viability (KIN001-266 + OSI-027; first compound 0.08 µM)	relative viability (KIN001-266 + OSI-027; first compound 0.253 µM)	relative viability (KIN001-266 + OSI-027; first compound 0.8 µM)	relative viability (KIN001-266 + OSI-027; first compound 2.53 µM)	relative viability (KIN001-266 + OSI-027; first compound 8 µM)	relative viability (KIN001-266 + Alpelisib; first compound 0.08 µM)	relative viability (KIN001-266 + Alpelisib; first compound 0.253 µM)	relative viability (KIN001-266 + Alpelisib; first compound 0.8 µM)	relative viability (KIN001-266 + Alpelisib; first compound 2.53 µM)	relative viability (KIN001-266 + Alpelisib; first compound 8 µM)	relative viability (KIN001-266 + Linsitinib; first compound 0.08 µM)	relative viability (KIN001-266 + Linsitinib; first compound 0.253 µM)	relative viability (KIN001-266 + Linsitinib; first compound 0.8 µM)	relative viability (KIN001-266 + Linsitinib; first compound 2.53 µM)	relative viability (KIN001-266 + Linsitinib; first compound 8 µM)
NCI-H2087	1.03	1.05	1.06	0.987	0.875	0.823	0.65	0.599	0.458	0.486	1.06	1.02	1.04	1.06	0.758	0.924	0.95	0.963	0.791	0.599
NCI-H2126	0.796	0.757	0.765	0.676	0.734	0.712	0.754	0.696	0.635	0.618	0.77	0.76	0.774	0.703	0.76	0.72	0.724	0.739	0.73	0.73
NCI-H2228	1.06	1.04	0.883	0.834	0.882	0.623	0.428	0.606	0.462	0.34	0.757	0.95	0.771	0.549	0.622	0.94	0.813	0.483	0.518	0.454
NCI-H2347	0.952	0.956	0.925	0.915	0.51	0.606	0.456	0.296	0.374	0.255	1.03	1.01	1.03	0.996	0.578	0.998	0.936	0.937	0.762	0.573
NCI-H2405	1.08	1.23	1.09	1.16	0.936	0.652	0.671	0.609	0.561	0.515	0.807	0.719	0.759	0.74	0.38	0.888	0.887	0.942	0.928	0.584
NCI-H3122	0.893	0.945	1.03	0.964	0.907	0.965	0.905	0.917	0.804	0.8	0.841	0.909	0.699	0.728	0.767	0.979	0.97	0.996	0.958	0.96
PC-3 [JPC-3]	0.451	0.447	0.422	0.414	0.499	0.764	0.776	0.688	0.755	0.751	1.04	1.02	0.957	0.983	0.896	0.99	0.934	0.941	0.958	0.896
PC-14	0.307	0.368	0.27	0.287	0.312	0.836	0.981		0.67	0.152	0.927	0.923	0.918	0.906	0.663	0.953	1.06	1.01	0.97	0.442
RERF-LC-KJ	0.871	0.828	0.817	0.857	0.781	0.645	0.614	0.519	0.498	0.351	0.863	0.785	0.856	0.832	0.569	0.947	0.857	0.917	0.846	0.656
SK-LU-1	0.932	0.862	0.817	0.64	0.613	0.358	0.307	0.403	0.346	0.26	1.24	1.07	1.14	0.927	0.582	1.29	0.937	1.14	1.07	0.639
SK-MES-1	0.47	0.522	0.414	0.405	0.418	0.694	0.676	0.575	0.573	0.474	0.943	0.813	0.845	0.872	0.76	1.17	1.08	1.01	1	0.902
SW 1573	1.09	1.13	1.11	0.88	1.04	0.778	0.627	0.616	0.515	0.513	0.789	0.775	0.709	0.764	0.693	0.844	0.8	0.72	0.732	0.619
UMC-11	1.08	1.04	1.13	0.848	0.79	0.426	0.485	0.511	0.455	0.367	0.927	0.931	1.11	0.952	0.604	0.944	1.01	1.08	0.981	1.09
